Source: patent publication EP0206497B1, “Therapeutic nucleosides and their preparation” (priority 1985, dated 1986)

Legend:
Type in all cases: cell-based
friend leukaemia virus = assay: Retroviral activity against friend leukaemia virus; conditions: read-out: ED₅₀
Description: (§1) • a) Feline Leukaemia Virus Susceptible feline embryo lung fibroblasts (FLF-3) were seeded onto multiwell slides (10⁵ cells/ml, 0.05 ml/well) with Dulbecco-modified Eagle's essential medium (DME) and incubated at 37 °C overnight. Each of the 32 wells was then infected with 40-60 focus forming units (ffu) of feline leukaemia virus (FeLV) for one hour after which the medium was replaced with fresh DME with varying concentrations of 2,6-diaminopurine-9-β-D-2',3'-dideoxyribofuranoside per 4 wells. Concentrations were 0, 1.0, 10, 50, 100, 200 and 400 »M. After 3 days incubation at 37 °C, the cultures were assayed by the indirect fluorescent antigen test for the production of FeLV. […]. […] This protective effect was seen on both days 10 and 13 of the experiment. • c) Friend Leukaemia virus The compounds have been tested for retroviral activity against friend leukaemia virus with the following results.

[1] = Cytotoxic effect against D-98 cells; conditions: human, 10⁻⁴ M, % growth relative to the control
Description: (§2) The following compounds were tested for cytotoxic effect at 10⁻⁴ M against human D-98 and mouse L cells. Figures shown are % growth relative to the control.

[2] = Cytotoxic effect against L cells; conditions: mouse, 10⁻⁴ M, % growth relative to the control
Description: as §2

[3] = test system: feline leukaemia virus (FeLV); assay: Feline leukaemia virus production in infected FLF-3 fibroblasts, indirect fluorescent antigen test; conditions: FLF-3 cells; for inhibition: 3 days incubation
Description: as §1

HIV = assay: Block of HIV infection / cytopathic effect in cloned T4 positive T helper lymphocytes (cell survival); conditions: after 10 days in culture (protective effect seen on days 10 and 13), up to 5000 virions/cell, untreated infected cells 8-fold decreased
Description: as §1

Row | EC50 (friend leukaemia virus) [µM] | SMILES | activity at 100 µM [1] [%] | activity at 100 µM [2] [%] | inhibition ([3]; 0.1 »M) [%] | inhibition ([3]; 10 »M) [%] | inhibition ([3]; 50 »M) [%] | production of FeLV ([3]; concentrations of 100 »M and above, 3 days incubation at 37°C) | viral cytopathic effects in infected T cells (HIV; 2 »M) | viral cytopathic effects in infected T cells (HIV; 10 »M)
1 | 25.9 | Nc1nc2c(ncn2[C@H]2CC[C@@H](CO)O2)c(=O)[nH]1 [2',3'-dideoxyguanosine, reference compound] | 87 | 93 | – | – | – | – | – | –
2 | 22.4 | Nc1nc(N)c2ncn([C@H]3CC[C@@H](CO)O3)c2n1 [2,6-Diaminopurine-9-β-D-2',3'-dideoxyribofuranoside] | 97 | 41 | 31 | 45 | 60 | Complete absence of FeLV | no viral cytopathic effects were seen | no viral cytopathic effects were seen
3 | – | Nc1ncc2ncn([C@H]3CC[C@@H](CO)O3)c2n1 [2-Aminopurine-9-β-D-2',3'-dideoxyribofuranoside] | 97 | 107 | – | – | – | – | – | –
